Results from PMC11116414, “Impact of secretin receptor homo-dimerization on natural ligand binding” (Nature Communications, 2024).

Legend:
WT SecR [1] = molecular target: T1, WT SecR (Homo sapiens, UniProt P47872); assay: KI collisional fluorescence quenching of receptor-bound probes, WT SecR; settings: KI quencher, mean ± S.E.M., n = 3
T1 construct: expressed in transfected cells; membranes isolated from CHO-SecR cells
Procedure: (§1) Incubations were terminated by separating receptor-bound ligand from free ligand using centrifugation at 25,000 × g for 10 min at 4 °C. The sample pellet was washed again with ice-cold KRH medium and resuspended in KRH medium for fluorescence measurements. The samples were excited at 481 nm and the emission was collected at 521 nm, with a bandwidth of 5 nm at an integration rate of 0.5 nm/s, and fluorescence intensities were collected by constant wavelength single point analysis using SPEX Fluoromax 3 (Horiba Scientific, Piscataway, NJ) with Origin version 8.1.
(§2) Fluorescence collisional quenching studies were performed using the hydrophilic quenching reagent, potassium iodide (KI), as described previously. Fluorescence intensities of receptor-bound probes were collected by exciting samples at 481 nm using Fluoromax-3 spectrofluorometer single point measurement by Origin version 8.1. […] The effect of ionic strength was determined by measuring fluorescence intensities in potassium chloride. […] The Stern–Volmer quenching constant, KSV, was calculated from the slope of Fo/F as a function of the quencher concentration [I^−].

SecR(G264A,I268A) [2] = molecular target: T2, SecR(G264A,I268A) (Homo sapiens, UniProt P47872, G264A/I268A); assay: KI collisional fluorescence quenching of receptor-bound probes, mutant SecR; settings: KI quencher, mean ± S.E.M., n = 3
T2 construct: expressed in transfected cells; membranes isolated from these cells
Procedure: as §1, §2

WT SecR [3] = molecular target: T1, WT SecR; assay: Fluorescence anisotropy of receptor-bound probes, WT SecR; settings: SecR WT, membranes, 50 nM probe, mean ± S.E.M., n = 3
Procedure: as §1

SecR(G264A,I268A) [4] = molecular target: T2, SecR(G264A,I268A); assay: Fluorescence anisotropy of receptor-bound probes, mutant SecR; settings: membranes, 50 nM probe, mean ± S.E.M., n = 3
Procedure: as §1

[5] = molecular target: Cys7-[Tyr10]secretin(1-27) agonist probe; assay: cysteine trapping, autoradiograph densitometry; settings: intact COS-1 cells, non-reducing 10% SDS-PAGE, n = 3, read off a plot
[6] = molecular target: Cys6-[Tyr10]secretin(1-27) agonist probe; assay: cysteine trapping, autoradiograph densitometry; settings: intact COS-1 cells, non-reducing 10% SDS-PAGE, n = 5, read off a plot
[7] = molecular target: Cys2-[Tyr10]secretin(1-27) agonist probe; assay: cysteine trapping, autoradiograph densitometry; settings: ECL2 series; intact COS-1 cells; non-reducing 10% SDS-PAGE; n = 4; read off a plot
[8] = +GppNHp (uncoupled state, 10 µM)

T1 sequence (P47872 23-440): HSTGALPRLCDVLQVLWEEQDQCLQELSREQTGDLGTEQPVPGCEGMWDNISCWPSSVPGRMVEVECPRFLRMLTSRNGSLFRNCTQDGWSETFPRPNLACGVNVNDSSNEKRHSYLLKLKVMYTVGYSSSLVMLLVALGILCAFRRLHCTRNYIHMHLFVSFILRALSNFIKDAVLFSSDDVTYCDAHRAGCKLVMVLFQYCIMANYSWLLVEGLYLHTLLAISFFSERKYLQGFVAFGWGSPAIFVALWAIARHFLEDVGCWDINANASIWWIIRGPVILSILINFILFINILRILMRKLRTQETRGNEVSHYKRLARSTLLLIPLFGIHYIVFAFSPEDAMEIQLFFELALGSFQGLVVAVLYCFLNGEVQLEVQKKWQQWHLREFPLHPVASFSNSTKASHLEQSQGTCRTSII
T2 sequence (P47872 23-440 G264A/I268A): as the sequence (P47872 23-440) above, with G242A, I246A counted along it

Compound: CC(C)C[C@H](NC(=O)CNC(=O)[C@H](CCC(N)=O)NC(=O)[C@H](CC(C)C)NC(=O)[C@H](CC(C)C)NC(=O)[C@H](CCCNC(=N)N)NC(=O)[C@H](CCC(N)=O)NC(=O)[C@H](CC(C)C)NC(=O)[C@H](CCCNC(=N)N)NC(=O)[C@H](C)NC(=O)CNC(=O)[C@H](CCC(=O)O)NC(=O)[C@H](CCCNC(=N)N)NC(=O)[C@H](CC(C)C)NC(=O)[C@H](CCCNC(=N)N)NC(=O)[C@H](CO)NC(=O)[C@H](CC(C)C)NC(=O)[C@H](CCC(=O)O)NC(=O)[C@H](CO)NC(=O)[C@@H](NC(=O)[C@H](Cc1ccccc1)NC(=O)[C@@H](NC(=O)CNC(=O)[C@H](CC(=O)O)NC(=O)[C@H](CO)NC(=O)[C@@H](N)Cc1c[nH]cn1)[C@@H](C)O)[C@@H](C)O)C(=O)N[C@H](C(=O)NCC(=O)N[C@@H](CSC1CC(=O)N(CCCCCNC(=O)c2ccc(-c3c4ccc(=N)c(S(=O)(=O)O)c-4oc4c(S(=O)(=O)O)c(N)ccc34)c(C(=O)O)c2)C1=O)C(N)=O)C(C)C (stereo partly shown) [Sec-Gly^28-(Cys^29-Alexa^488)]
- Stern-Volmer quenching constant (Ksv) (WT SecR [1]; [8]): 4.9±0.4
- Stern-Volmer quenching constant (Ksv) (WT SecR [1]; -GppNHp (active state), 50 nM probe, ex 481/em 521 nm): 6.2±0.7
- Stern-Volmer quenching constant (Ksv) (SecR(G264A,I268A) [2]; [8]): 4.2±0.8
- Stern-Volmer quenching constant (Ksv) (SecR(G264A,I268A) [2]; -GppNHp (active state)): 5.6±1.1
- Anisotropy (WT SecR [3]; +GppNHp (10 µM), 20 °C): 0.13 ± 0.01
- Anisotropy (WT SecR [3]; +GppNHp (10 µM), 37 °C): 0.08 ± 0.01
- Anisotropy (WT SecR [3]; control, 20 °C, KRH pH 7.4, ex 481 nm): 0.13 ± 0.01
- Anisotropy (WT SecR [3]; control, 37 °C, KRH pH 7.4, ex 481 nm): 0.08 ± 0.01
- Anisotropy (SecR(G264A,I268A) [4]; +GppNHp (10 µM), 20 °C): 0.15 ± 0.01
- Anisotropy (SecR(G264A,I268A) [4]; +GppNHp (10 µM), 37 °C): 0.1 ± 0.01
- Anisotropy (SecR(G264A,I268A) [4]; control, 20 °C): 0.13 ± 0.01
- Anisotropy (SecR(G264A,I268A) [4]; control, 37 °C): 0.09 ± 0.01

Compound: human wild type secretin receptor (SecR WT) (from UniProt P47872) G264A; I268A; A359C
- other: receptor labeling (% of maximum signal) (% of maximum signal) ([5]; ECL3 series): 85

Compound: human wild type secretin receptor (SecR WT) (from UniProt P47872) G264A; I268A; I288C
- other: receptor labeling (% of maximum signal) (% of maximum signal) ([5]; ECL2 series): 68

Compound: human wild type secretin receptor (SecR WT) (from UniProt P47872) G264A; I268A; L374C
- other: receptor labeling (% of maximum signal) (% of maximum signal) ([6]; ECL3 series): 77
- other: receptor labeling (% of maximum signal) (% of maximum signal) ([5]; ECL3 series): 88

Compound: human wild type secretin receptor (SecR WT) (from UniProt P47872) G264A; I268A; W295C
- other: receptor labeling (% of maximum signal) (% of maximum signal) [7]: 93
- other: receptor labeling (% of maximum signal) (% of maximum signal) ([5]; ECL2 series): 83

Compound: human wild type secretin receptor (SecR WT) (from UniProt P47872) G264A; I268A; W296C
- other: receptor labeling (% of maximum signal) (% of maximum signal) ([6]; ECL2 series): 68
